Experimental data published in EP0908457B1, “3-(1,2-benzisothiazol- and isoxazol-5-Y1)-2,4(1H,3H)-pyrimidinedione or thione and 3-(1,2-benzisothiazol- and isoxazol-5-y1)-4(3H)-pyrimidinone or thione herbicidal agents” (BASF AKTIENGESELLSCHAFT, priority 1997, dated 1999).

Experiments:
[1] = tested on: Echinochloa oryzoides (Ard.) Fritsch.; assay: Preemergence weed control under flooded paddy conditions, ECHORC (Watergrass (Calif.)); type: in vivo; settings: preemergence, flooded paddy; also: meaning of each grade not given here
[2] = tested on: Cyperus iria; assay: Preemergence weed control under flooded paddy conditions, CYPIR (Rice Flatsedge); type: in vivo; settings: preemergence, flooded paddy; also: meaning of each grade not given here
[3] = tested on: Cyperus serotinus, Rottb.; assay: Preemergence weed control under flooded paddy conditions, CYPSE (Flatsedge); type: in vivo; settings: preemergence; also: meaning of each grade not given here
[4] = tested on: Monochoria vaginalis, Presl.; assay: Preemergence weed control under flooded paddy conditions, MOOVA (Monochoria); type: in vivo; settings: preemergence, flooded paddy; also: meaning of each grade not given here
[5] = tested on: Sagittaria pygmaea, L.; assay: Preemergence weed control under flooded paddy conditions, SAGPY (Arrowhead (Pygmaea)); type: in vivo; settings: preemergence, flooded paddy; also: meaning of each grade not given here
[6] = tested on: Oryza sativa, (L.) Tebonnet; assay: Rice tolerance to post-transplant applications under flooded paddy conditions (Example 187), ORYSAT (Rice, Tebonnet); settings: for herbicidal effect rating ORYSAT: rated 3-4 weeks after treatment; for herbicidal effect rating, ORYSAT (rice tolerance): rated three to four weeks after treatment; as to herbicidal effect rating ORYSAT: meaning of each grade not given here
[7] = Rate 0.0320 kg/ha, rated 3-4 weeks after treatment
[8] = Rate 0.0620 kg/ha, rated 3-4 weeks after treatment
[9] = Rate 0.1250 kg/ha, rated 3-4 weeks after treatment
[10] = Rate 0.2500 kg/ha, rated 3-4 weeks after treatment
[11] = 0.0313 kg/ha, rated three to four weeks after treatment
[12] = 0.0625 kg/ha, rated three to four weeks after treatment
[13] = 0.1250 kg/ha, rated three to four weeks after treatment
[14] = 0.2500 kg/ha, rated three to four weeks after treatment

COCCCOCCCOC(=O)COc1ccc(C)cc1-c1nsc2ccc(-n3c(=O)cc(C(F)(F)F)n(C)c3=O)cc12 [Example 523, Acetic acid, {{2-{5-[3,6-dihydro-3-methyl-2,6-dioxo-4-(trifluoromethyl)-1(2H)-pyrimidinyl]-1,2-benzisothiazol-3-yl}-p-tolyl}oxy}-, 3-(3-methoxypropoxy)propyl ester]
5.5: herbicidal effect rating ORYSAT ([6]; Rate 0.1250 kg/ha)
2.0: herbicidal effect rating, CYPIR [2, 8] | herbicidal effect rating, CYPSE [3, 9]
4.5: herbicidal effect rating ORYSAT ([6]; Rate 0.0320 kg/ha) | herbicidal effect rating ORYSAT ([6]; Rate 0.0620 kg/ha)
0.0: herbicidal effect rating, CYPIR [2, 7] | herbicidal effect rating, CYPSE [3, 7] | herbicidal effect rating, CYPSE [3, 8] | herbicidal effect rating, SAGPY [5, 7] | herbicidal effect rating, SAGPY [5, 8] | herbicidal effect rating, SAGPY [5, 9] | herbicidal effect rating, SAGPY [5, 10]
7.0: herbicidal effect rating ORYSAT ([6]; Rate 0.2500 kg/ha)
8.0: herbicidal effect rating, ECHORC [1, 8] | herbicidal effect rating, ECHORC [1, 9] | herbicidal effect rating, CYPIR [2, 10] | herbicidal effect rating, MOOVA [4, 7]
9.0: herbicidal effect rating, ECHORC [1, 10] | herbicidal effect rating, CYPSE [3, 10] | herbicidal effect rating, MOOVA [4, 8] | herbicidal effect rating, MOOVA [4, 9] | herbicidal effect rating, MOOVA [4, 10]
6.0: herbicidal effect rating, ECHORC [1, 7]
4.0: herbicidal effect rating, CYPIR [2, 9]

COc1cc(C)c(C)c(C)c1-c1nsc2ccc(-n3c(=O)cc(C(F)(F)F)n(C)c3=O)cc12 [Example 34, 3-[3-(6-Methoxy-2,3,4-trimethylphenyl)-1,2-benzisothiazol-5-yl]-1-methyl-6-(trifluoromethyl)-2,4(1H,3H)-pyrimidinedione]
2.0: herbicidal effect rating, ECHORC [1, 11]
0.0: herbicidal effect rating, CYPIR [2, 11] | herbicidal effect rating, CYPIR [2, 12] | herbicidal effect rating, CYPIR [2, 13] | herbicidal effect rating, CYPIR [2, 14] | herbicidal effect rating, CYPSE [3, 11] | herbicidal effect rating, CYPSE [3, 12] | herbicidal effect rating, CYPSE [3, 13] | herbicidal effect rating, CYPSE [3, 14] | herbicidal effect rating, MOOVA [4, 11] | herbicidal effect rating, MOOVA [4, 12] | herbicidal effect rating, MOOVA [4, 13] | herbicidal effect rating, MOOVA [4, 14] | herbicidal effect rating, SAGPY [5, 11] | herbicidal effect rating, SAGPY [5, 12] | herbicidal effect rating, SAGPY [5, 13] | herbicidal effect rating, SAGPY [5, 14] | herbicidal effect rating, ORYSAT (rice tolerance) ([6]; 0.0313 kg/ha) | herbicidal effect rating, ORYSAT (rice tolerance) ([6]; 0.0625 kg/ha) | herbicidal effect rating, ORYSAT (rice tolerance) ([6]; 0.1250 kg/ha) | herbicidal effect rating, ORYSAT (rice tolerance) ([6]; 0.2500 kg/ha)
3.5: herbicidal effect rating, ECHORC [1, 13]
4.5: herbicidal effect rating, ECHORC [1, 14]
2.5: herbicidal effect rating, ECHORC [1, 12]
